Measured values from US10842779B2, “Heterocyclic compounds and their use in preventing or treating bacterial infections” (priority 2015, dated 2020).

Assays:
OXA-1 = target: T1, OXA-1 (Escherichia coli, UniProt P13661); experiment: β-Lactamase inhibitory activity, nitrocefin hydrolysis; format: biochemical; settings: class (D); 30 min pre-incubation
T1 construct: made in house; host or cells: E. coli

AmpC (P99) = AmpC (P99) (Enterobacter cloacae, UniProt P05364); experiment: biochemical
Method: (§1) Method 1: β-Lactamase Inhibitory Activity, Determination of IC50 (Table 1)
(§2) Enzyme activity was monitored by spectrophotometric measurement of nitrocefin (NCF-TOKU-E, N005) hydrolysis at 485 nm, at room temperature and in assay buffer A: 100 mM Phosphate pH7, 2% glycerol and 0.1 mg/mL Bovine serum albumin (Sigma, B4287). Enzymes were cloned in E. coli expression vector, expressed and purified in house using classical procedures. To a transparent polystyrene plate (Corning, 3628) were added in each well 5 μL DMSO or inhibitor dilutions in DMSO and 80 μL enzyme in buffer A. Plates were immediately read at 485 nm in a microplate spectrophotometer (BioTek, PowerWave HT) to enable background subtraction. After 30 min of pre-incubation at room temperature, 15 μL of NCF (200 μM final) were finally added in each well. Final enzyme concentrations were 0.1 nM (TEM-1), 0.075 nM (SHV-1), 0.4 nM (CTX-M-15), 1 nM (KPC-2), 0.2 nM (P99 AmpC), 0.2 nM (CMY-37), 0.4 nM (AmpC P. aeruginosa), 0.2 nM (OXA-1), 1.2 nM (OXA-11), 0.4 nM (OXA-15) and 0.3 nM (OXA-48). After 20 min incubation at room temperature, plates were once again read at 485 nm. Enzyme activity was obtained by subtracting the final signal by the background, and was converted to enzyme inhibition using non inhibited wells. IC50 curves were fitted to a classical Langmuir equilibrium model with Hill slope using XLFIT (IDBS).

AmpC (PAE) = AmpC (PAE) (Pseudomonas aeruginosa, UniProt P24735); experiment: biochemical
Method: as §1, §2

## O=C(O)C(F)(F)F.O=C1N2C[C@H](c3scnc3[C@H]2c2ncc[nH]2)N1OS(=O)(=O)[O-].[Na+] (relative stereo) [Example 1, Sodium and 2,2,2-trifluoroacetate [trans-7-(1H-imidazol-3-ium-2-yl)-9-oxo-3-thia-5,8,10-triaza-tricyclo[6.2.1.0^2,6]undeca-2(6),4-dien-10-yl]sulfate]
OXA-1
  IC50: 190 nM
AmpC (P99)
  IC50: 0.37 nM
AmpC (PAE)
  IC50: 17 nM
